Measurements: patent US20240180822A1, “NON-NANOPARTICULATE APPLICATION FORMS OF MACROLIDES” (Nucleus Medical GmbH, priority 2021, published 2024)

Test: saturation solubility of tacrolimus in different solvents (HPLC in the supernatant)
Format: physicochemical
Settings: all tested organic solvents
Experimental: Tacrolimus was dissolved in an organic solvent. Particularly, the saturation solubility of tacrolimus in different organic solvents was tested. Crystalline active ingredient was added to a defined amount of solvent at room temperature while stirring until an insoluble sediment was formed. After filtration, the concentration of active ingredient was quantified by HPLC in the supernatant.

solubility in organic solvents: soluble in all tested organic solvents
Structure (SMILES): C=CC[C@@H]1/C=C(\C)C[C@H](C)C[C@H](OC)[C@H]2O[C@@](O)(C(=O)C(=O)N3CCCC[C@H]3C(=O)O[C@H](/C(C)=C/[C@@H]3CC[C@@H](O)[C@H](OC)C3)[C@H](C)[C@@H](O)CC1=O)[C@H](C)C[C@@H]2OC [Tacrolimus]
